No end group written: not given here.
Legend:
[1] = test system: patient, a child with symptoms of autism; assay: Intravenous secretin infusion in a child with symptoms of autism (Example 1); format: in vivo, human
From the text: The present invention will be better understood from the following examples which are given by way of illustration and not by way of limitation. The patient, the same in both examples, is a child with symptoms of autism.
The patient in the present examples developed normally […], with the exception of gastrointestinal problems (i.e., chronic diarrhea and constipation) which began at about six months. At about thirteen months, when whole milk was introduced into their diet, the patient began having reoccurring ear infections. At about fourteen months, the patient appeared to lose the ability to process language, first receptively (at about 14 months) then expressively (at about 16 months). The patient also experienced episodes of “shivers” that appeared to be intermittent seizures.
After consulting with numerous neurologists, pediatricians, child development specialists, audiologists, endocrinologists, allergists, and other medical professionals, no consistent diagnosis had been reached. […] The term autism is used herein for reference purposes only, and this invention is intended to apply to any number of pervasive developmental disorders as well as neurological and immunological disorders.
Further, the patient's secretin cells prior to receiving treatment, measured at a level of 9, are far below the normal limit in the range of 20-70.
When the patient was […], the secretin was administered by way of an infusion as part of an upper gastrointestinal endoscopy. The secretin was used in this diagnostic procedure at the request of the patient's parents, one of which is an inventor of the present invention. The secretin used in this procedure is known as Secretin-Ferring available from Ferring Laboratories, Inc., Suffern, New York (See Appendix A). The secretin was dissolved in a […] of sodium chloride and administered in a dosage of 2 clinical units (CU) per kilogram (kg) body weight by intravenous injection over one minute. […] The diagnostic tests performed on the patient during this procedure also indicated gastric inflammation. […] The following Table I summarizes the improvements observed in the patient within 3 weeks after the infusion of secretin.

[2] = test system: patient, a child with symptoms of autism; assay: Daily transdermal secretin with DMSO in the same patient (Example 2); format: in vivo, human
Description: At the time of this treatment, the patient was […]. Secretin was administered transdermally using pharmaceutical grade dimethyl sulfoxide (DMSO) (generally 99.9% pure) available from Clinic Service Co., Box 2512, Hemet Calif. 92543. The secretin (Secretin-Ferring) was administered daily in a dosage of about 75 CU over a five day period (i.e., about 15 CU daily). For each treatment, about 4 drops of DMSO were placed onto the skin of the patient, about 15 CU of the crystalline secretin was placed onto the DMSO, and the composition was rubbed into the skin.

[3] = test system: abnormal opioid peptides in autistic children; conditions: autistic children that responded to casein free and gluten free diet; measured before and after infusion; cited from earlier work

Substance: secretin (HSDGTFTSELSRLRDSARLQRLLQGLV; not fully specified; ends and bridges not checked; UniProt P63298 33-59, looked up) [polypeptide hormone secreted by the mucosa of the duodenum and upper jejunum; used as Secretin-Ferring from Ferring Laboratories]
- time at which the rate of progress appeared to decrease ([1]; after first infusion, behavioral improvements continued): about 5 weeks
- SPECT scan perfusion of the right posterior parietal and right temporal lobes ([1]; after the treatment): improved
- rubella titers ([1]; after the treatment, before: 5.8): 2.3
- serotonin levels in blood ([1]; blood tests after the treatment): a rise in serotonin levels
- pancreatic juice released ([1]; immediately after 2 CU/kg iv over one minute, usual rate 1-2 ml/min): approximately 10 ml/min
- result of second and third infusions ([1]; second infusion about 9 months after the first, third about three months after the second): achieved the same results
- spinning episodes ([1]; within 3 weeks after infusion, before: 1-2 times/week): No spinning episodes.
- toilet training ([1]; within 3 weeks after infusion, before: diapers only): Completely potty trained.
- eye contact, share of the time ([1]; within 3 weeks after infusion, before: minimal eye contact): Eye contact 75% of the time.
- connections made between language and objects ([1]; within 3 weeks after infusion, before: no apparent connections): Many connections made between
- words spoken ([1]; within 3 weeks after infusion, before: two words): 100's of words-will repeat some
- interaction with videos ([1]; within 3 weeks after infusion, before: watch videos): Now, gets “involved” interactively
- water consumption ([1]; within 3 weeks after infusion, no change, before: approximately 50 cups per day): change approximately 50 cups per cups per day
- chronic abnormal bowel movements ([1]; within days after administration, no change in diet): became normal
- language ([2]; transdermal with DMSO, about 15 CU daily, within about 6 months): progressed to spontaneous and conversational language
- autistic behavioral symptoms on stopping the daily dose ([2]; when the daily dose of secretin is stopped): the autistic behavioral symptoms return
- abnormal opioid peptides after secretin infusion [3]: the peptides disappeared

From patent publication US20010049353A1, “Method of using secretin and compositions made therefrom for the treatment of autism and other neurological, behavioral and immunological disorders” (Repligen Corporation, priority 1998, published 2001)
